Data taken from patent US11169145B2, “Methods of detection and treatment for cardiovascular disease and foot wounds” (Washington University, priority 2017, dated 2021).
Entries after “also recorded” stand apart in the source; their conditions may differ.

Experiments:
[1] = system: serum circulating Fatty Acid Synthase (cFAS); assay: Serum cFAS (ELISA) in subjects with T2D and PAD with or without Cilostazol therapy; format: in vivo, human; conditions: subjects with T2D and PAD receiving Cilostazol therapy vs subjects not receiving the medication
Experimental: FIG. 9A-FIG. 9C is a series of graphs showing serum cFAS is a biomarker for disease subjects with PAD and T2D. cFAS was evaluated using 96-well ELISA (Aviva Systems Biology) FIG. 9A. Subjects with severe PAD (n=29) had more serum cFAS than subjects with moderate PAD (n=30), and subjects with no PAD (n=22). FIG. 9B. cFAS is elevated in subjects with T2D (n=40) compared to no T2D (n=41). FIG. 9C. cFAS is also elevated in subjects with DCSI ≥5 (n=15) compared to DCSI <5 (n=14). FIG. 11A-FIG. 11B is a pie chart and box plot showing cilostazol in our subjects with T2D and PAD. FIG. 11A. In our current clinical practice, Cilostazol therapy is currently administered to only a minority of subjects, and therefore the majority of patients would likely meet study eligibility criteria. FIG. 11B. Subjects with T2D and PAD who receive Cilostazol therapy have lower cFAS (whiskers indicate max and min values) in study cohort. Over a 1 year period, we collected serum specimens from subjects with peripheral arterial disease (PAD; severe or moderate), and/or T2D. Serum cFAS content and enzymatic activity was evaluated as a potential biomarker for PAD and T2D disease severity. […] We retrospectively reviewed patient encounters at the Barnes-Jewish Hospital vascular surgery clinic over a 6-month period to determine the prevalence of Cilostazol prescriptions among subjects with T2D, PAD and/or FWs.

[2] = cited from earlier work
[3] = cited from earlier work; remark: listed apart in the source
[4] = MR-derived skeletal muscle blood flow (SMBF) in subjects with T2D with or without Cilostazol therapy; format: in vivo, human; conditions: subjects with T2D, 12 months of Cilostazol vs not treated, at rest and with exercise; critically ischemic limbs (ABI <0.5)
Source text: MG=Medial Gastrocnemius, SOL=Soleus, color bar unit=ml/min/100 g.

[5] = cited from earlier work; remark: listed apart in the source
[6] = cited from earlier work; remark: listed apart in the source
[7] = 8-week course, patients with T2D and PAD
[8] = 3 to 6 month course of Cilostazol therapy

**Q.** With O=C1CCc2cc(OCCCCc3nnnn3C3CCCCC3)ccc2N1 [Cilostazol, 6-[4-(1-cyclohexyl-1H-tetrazol-5-yl)butoxy]-3,4-dihydrocarbostyril] as the compound, how does the “serum cFAS” value [1] read?
**A.** significantly lower

**Q.** And the “lower extremity ischemic symptoms” value [2, 7]?
**A.** improving

**Q.** And the “peripheral skin perfusion detected with transcutaneous oxygen pressure (TcPO2)” value [2, 7]?
**A.** improve

**Q.** And the “onset of FWs” value ([2]; patients with T2D)?
**A.** prevent

**Q.** And the peripheral skin perfusion ([2]; previous studies)?
**A.** enhance

**Q.** And the wound healing ([2]; previous studies)?
**A.** promote

**Q.** What about the “pro-atherogenic / serum lipid profiles” value [3, 8] of the same compound?
**A.** improve; also recorded: normalize

**Q.** And the “total cholesterol and serum LDL” value [3, 8]?
**A.** decrease

**Q.** And the “risk of total vascular events, especially cerebrovascular events” value ([3]; meta-analysis of 12 RCTs, patients with T2D)?
**A.** significantly decrease

**Q.** What about the “PUFA to SFA ratio” value ([3]; previous literature) of the same compound?
**A.** alter

**Q.** What about the “skeletal muscle blood flow (SMBF), lower leg perfusion by MR” value [4] of the same compound?
**A.** improved perfusion; also recorded: Subject not treated with Cilostazol (top) demonstrated less lower leg perfusion

**Q.** What about the “effect on Class III-IV heart failure” value ([5]; FDA black-box warning in this patient population) of the same compound?
**A.** can exacerbate the condition

**Q.** And the “minor side effect: abdominal pain” value ([5]; incidence)?
**A.** 5%

**Q.** And the “minor side effect: arthritis” value ([5]; incidence)?
**A.** 2%

**Q.** What about the “minor side effect: cough” value ([5]; incidence) of the same compound?
**A.** 4%

**Q.** What about the “minor side effect: diarrhea” value ([5]; incidence) of the same compound?
**A.** 19%

**Q.** What about the “minor side effect: dizziness” value ([5]; incidence) of the same compound?
**A.** 10%

**Q.** And the “minor side effect: dyspepsia” value ([5]; incidence)?
**A.** 6%

**Q.** And the “minor side effect: flatulence” value ([5]; incidence)?
**A.** 3%

**Q.** What about the “minor side effect: headaches” value ([5]; incidence) of the same compound?
**A.** 34%

**Q.** What about the “minor side effect: myalgia” value ([5]; incidence) of the same compound?
**A.** 3%

**Q.** And the “minor side effect: nausea” value ([5]; incidence)?
**A.** 7%

**Q.** And the “minor side effect: pharyngitis” value ([5]; incidence)?
**A.** 10%

**Q.** What about the “minor side effect: skin rash” value ([5]; incidence) of the same compound?
**A.** 2%

**Q.** And the “minor side effect: vertigo” value ([5]; incidence)?
**A.** 2%

**Q.** And the “minor side effect: vomiting” value ([5]; incidence)?
**A.** 2%

**Q.** And the “increase in walking distance” value ([6]; 3-month treatment course, patients with claudication)?
**A.** 35-50%

**Q.** What about the “limb function (walking distance)” value ([6]; previous studies) of the same compound?
**A.** improve
